Data reported in patent publication US20220288095A1, “SIALIC ACID FOR USE IN THE TREATMENT OF PSORIASIS” (LifeScience AS, priority 2019, published 2022).

Tested on: psoriasis
Experiment: Treatment of an adult with psoriasis with NGNA
Assay type: in vivo, human
Conditions: compared to previous treatments
Method: Example 2. An adult with psoriasis was treated with 5 mg NGNA per day administered sublingually. Administration caused symptoms associated with the psoriasis including redness, scaling spots, itching, burning and soreness to be reduced as compared to previous treatments.
Example 3. An adult with psoriasis was treated with 5 g NGNA per day administered orally. Administration caused symptoms associated with the psoriasis including redness, scaling spots, itching, burning and soreness to be reduced as compared to previous treatments.
Example 4. An adult with psoriasis was treated with NGNA supplied in a hot water bath.
Example 5. An adult with psoriasis was treated with a dermal spray solution of NGNA in water.

Measured: symptoms associated with the psoriasis including redness, scaling spots, itching, burning and soreness

O=C(CO)N[C@H]1[C@H]([C@H](O)[C@H](O)CO)O[C@](O)(C(=O)O)C[C@@H]1O [NGNA, n-glycolylneuraminic acid]
reduced: 5 mg NGNA per day sublingually | 5 g NGNA per day orally | NGNA supplied in a hot water bath | dermal spray solution of NGNA in water
